Laboratory results: patent publication US10745382B2 (BRISTOL-MYERS SQUIBB COMPANY, priority 2015, dated 2020)
pIC50: −log10 of the molar value.

Biological target: T1, PD-1/PD-L1 (Homo sapiens, UniProt Q9NZQ7)
T1 construct: made in house; host or cells: HEK293T
Test: PD-1/PD-L1 Homogenous Time-Resolved Fluorescence (HTRF) binding assay
Conditions: PD-L1-His 10 nM, PD-1-Ig 20 nM; value given as range class; read-out: Range or IC50
Procedure, shortened: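 Additional pairs run were PD-1-Ig with PD-L2-His (20 & 5 nM) and CD80-His with PD-L1-Ig (100 & 10 nM), all human proteins. Buffer: dPBS plus 0.1% BSA, 0.05% Tween-20; time-resolved FRET read-out via 1 nM Eu-cryptate anti-Ig and 20 nM APC anti-His, final concentrations.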

T1 sequence (Q9NZQ7 with tags, fused parts or gaps): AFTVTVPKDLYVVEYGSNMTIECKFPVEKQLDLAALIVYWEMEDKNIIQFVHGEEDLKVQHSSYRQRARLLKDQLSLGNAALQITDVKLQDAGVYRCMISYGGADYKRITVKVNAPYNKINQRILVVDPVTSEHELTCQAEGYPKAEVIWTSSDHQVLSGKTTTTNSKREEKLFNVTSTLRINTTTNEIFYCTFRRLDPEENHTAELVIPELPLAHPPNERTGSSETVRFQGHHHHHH

| pIC50 | Structure (SMILES) |
| --- | --- |
| 8.00 to 9.68 | Cc1c(OCCCN2CC[C@@H](O)C2)cccc1-c1cccc(COc2cc(OCC3CC3)c(CNC(CO)CO)cc2Cl)c1Cl [Example 2319, (R)-2-((5-chloro-4-((2-chloro-3′-(3-(3-hydroxypyrrolidin-1-yl)propoxy)-2′-methyl-[1,1′-biphenyl]-3-yl)methoxy)-2-(cyclopropylmethoxy)benzyl)amino)propane-1,3-diol] |
| 8.00 to 9.68 | Cc1c(COc2cc(OCc3cncc(C#N)c3)c(CO)cc2Cl)cccc1-c1cccc(OCCCNC(CO)CO)c1Cl [Example 2039, 5-((4-chloro-5-((2′-chloro-3′-(3-((1,3-dihydroxypropan-2-yl)amino)propoxy)-2-methyl-[1,1′-biphenyl]-3-yl)methoxy)-2-(hydroxymethyl)phenoxy)methyl)nicotinonitrile] |
| 8.00 to 9.68 | Cc1c(COc2cc(OCc3cncc(C#N)c3)c(CN3CCCC[C@H]3C(=O)O)cc2Cl)cccc1-c1cccc(OCCCN2C[C@H]3CC[C@@H](C2)O3)c1C [Example 3046, (S)-1-(4-((3′-(3-((1R,5S)-8-oxa-3-azabicyclo[3.2.1]octan-3-yl)propoxy)-2,2′-dimethyl-[1,1′-biphenyl]-3-yl)methoxy)-5-chloro-2-((5-cyanopyridin-3-yl)methoxy)benzyl)piperidine-2-carboxylic Acid] |
| 8.00 to 9.68 | Cc1c(COc2cc(OCc3cncc(C#N)c3)c(CN3CCCC[C@H]3C(=O)O)cc2Cl)cccc1-c1cccc(O[C@@H](C)CCN2CC[C@@H](O)C2)c1Cl [Example 1522, (S)-1-(5-chloro-4-((2′-chloro-3′-(((S)-4-((R)-3-hydroxypyrrolidin-1-yl)butan-2-yl)oxy)-2-methyl-[1,1′-biphenyl]-3-yl)methoxy)-2-((5-cyanopyridin-3-yl)methoxy)benzyl)piperidine-2-carboxylic acid] |
| 8.00 to 9.68 | Cc1c(COc2cc(OCc3cncc(C#N)c3)c(CNC(CO)CO)cc2Cl)cccc1-c1cccc(OCCCNC(CO)CO)c1Cl [Example 2042, 5-((4-chloro-5-((2′-chloro-3′-(3-((1,3-dihydroxypropan-2-yl)amino)propoxy)-2-methyl-[1,1′-biphenyl]-3-yl)methoxy)-2-(((1,3-dihydroxypropan-2-yl)amino)methyl)phenoxy)methyl)nicotinonitrile] |
| 8.00 to 9.68 | Cc1c(COc2cc(OCc3cncc(C#N)c3)c(CNC(C)(CO)CO)cc2Cl)cccc1-c1cccc(OCCC(=O)NC[C@H](O)CO)c1Cl [Example 2118, (S)-3-((2-chloro-3′-((2-chloro-5-((5-cyanopyridin-3-yl)methoxy)-4-(((1,3-dihydroxy-2-methylpropan-2-yl)amino)methyl)phenoxy)methyl)-2′-methyl-[1,1′-biphenyl]-3-yl)oxy)-N-(2,3-dihydroxypropyl)propanamide] |
| 8.00 to 9.68 | Cc1c(COc2cc(OCc3cncc(C#N)c3)c(CNC(C)(CO)CO)cc2Cl)cccc1-c1cccc(OCC(O)CO)c1Cl (stereo not drawn) [Example 2082, 5-((4-chloro-5-((2′-chloro-3′-(2,3-dihydroxypropoxy)-2-methyl-[1,1′-biphenyl]-3-yl)methoxy)-2-(((1,3-dihydroxy-2-methylpropan-2-yl)amino)methyl)phenoxy)methyl)nicotinonitrile] |
| 8.00 to 9.68 | Cc1c(COc2cc(OCc3cc(F)cc(F)c3)c(CN3CCCC[C@H]3C(=O)O)cc2Cl)cccc1-c1cccc(OCCCN2CC[C@@H](O)C2)c1C [Example 4521, (S)-1-(5-chloro-2-((3,5-difluorobenzyl)oxy)-4-((3′-(3-((R)-3-hydroxypyrrolidin-1-yl)propoxy)-2,2′-dimethyl-[1,1′-biphenyl]-3-yl)methoxy)benzyl)piperidine-2-carboxylic Acid] |
| 7.00 to 8.00 | Cc1c(COc2ccc(CN3CCCC[C@H]3C(=O)O)c(C)c2Cl)cccc1-c1cccc(OCCCN2CC[C@@H](O)C2)c1C [Example 4524, (S)-1-(3-chloro-4-((3′-(3-((R)-3-hydroxypyrrolidin-1-yl)propoxy)-2,2′-dimethyl-[1,1′-biphenyl]-3-yl)methoxy)-2-methylbenzyl)piperidine-2-carboxylic Acid] |
| 8.00 to 9.68 | Cc1c(COc2cc(OCc3cncc(C#N)c3)c(CN[C@](C)(CO)C(=O)O)cc2Cl)cccc1-c1cccc(OCCCN2CCC(O)C2)c1C(F)(F)F (stereo in doubt) [Example 3013, (R)-2-((5-chloro-2-((5-cyanopyridin-3-yl)methoxy)-4-((3′-(3-((R)-3-hydroxypyrrolidin-1-yl)propoxy)-2-methyl-2′-(trifluoromethyl)-[1,1′-biphenyl]-3-yl)methoxy)benzyl)amino)-3-hydroxy-2-methylpropanoic Acid] |
| 5.00 to 5.70 | CCNC(=O)c1cccc(-c2cccc(COc3cc(OCc4cc(F)cc(F)c4)c(CN4CCOC[C@H]4C(=O)O)cc3Cl)c2C)c1C [Example 4020, (S)-4-(5-chloro-2-((3,5-difluorobenzyl)oxy)-4-((3′-(ethylcarbamoyl)-2,2′-dimethyl-[1,1′-biphenyl]-3-yl)methoxy)benzyl)morpholine-3-carboxylic Acid] |
| 8.00 to 9.68 | Cc1c(COc2cc(OCc3cncc(C#N)c3)c(CNC3(C(=O)O)CC3)cc2Cl)cccc1-c1cccc(OCCCN2CC[C@@H](O)C2)c1C [Example 4110, (R)-1-((5-chloro-2-((5-cyanopyridin-3-yl)methoxy)-4-((3′-(3-(3-hydroxypyrrolidin-1-yl)propoxy)-2,2′-dimethyl-[1,1′-biphenyl]-3-yl)methoxy)benzyl)amino)cyclopropane-1-carboxylic Acid] |
| 8.00 to 9.68 | Cc1c(COc2cc(OCc3cncc(C#N)c3)c(CN[C@@](C)(CO)C(=O)O)cc2Cl)cccc1-c1cccc(O[C@H](C)CCN2CC[C@@H](O)C2)c1C [Example 1525, (S)-2-((5-chloro-2-((5-cyanopyridin-3-yl)methoxy)-4-((3′-(((R)-4-((R)-3-hydroxypyrrolidin-1-yl)butan-2-yl)oxy)-2,2′-dimethyl-[1,1′-biphenyl]-3-yl)methoxy)benzyl)amino)-3-hydroxy-2-methylpropanoic acid] |
| 8.00 to 9.68 | Cc1c(OCCCN2CC[C@@H](O)C2)cccc1-c1cccc(COc2cc(OCC(F)F)c(CNC(CO)CO)cc2Cl)c1Cl [Example 2318, (R)-2-((5-chloro-4-((2-chloro-3′-(3-(3-hydroxypyrrolidin-1-yl)propoxy)-2′-methyl-[1,1′-biphenyl]-3-yl)methoxy)-2-(2,2-difluoroethoxy)benzyl)amino)propane-1,3-diol] |
| 8.00 to 9.68 | CCOC(=O)C1(CO)CCN(CCCOc2cccc(-c3cccc(COc4cc(OCc5cncc(C#N)c5)c(CN[C@](C)(CO)C(=O)O)cc4Cl)c3C)c2C)C1 (stereo partly drawn) [Example 1049, (2R)-2-((5-chloro-2-((5-cyanopyridin-3-yl)methoxy)-4-((3′-(3-(3-(ethoxycarbonyl)-3-(hydroxymethyl)pyrrolidin-1-yl)propoxy)-2,2′-dimethyl-[1,1′-biphenyl]-3-yl)methoxy)benzyl)amino)-3-hydroxy-2-methylpropanoic Acid] |
| 8.00 to 9.68 | Cc1c(COc2cc(OCc3cncc(C#N)c3)c(CNC(CO)CO)cc2Cl)cccc1-c1cccc(OCCCN2CCC(F)(F)C2)c1C [Example 4116, 5-((4-chloro-5-((3′-(3-(3,3-difluoropyrrolidin-1-yl)propoxy)-2,2′-dimethyl-[1,1′-biphenyl]-3-yl)methoxy)-2-(((1,3-dihydroxypropan-2-yl)amino)methyl)phenoxy)methyl)nicotinonitrile] |
| 8.00 to 9.68 | Cc1c(COCCN2CC[C@@H](O)C2)cccc1-c1cccc(COc2cc(OCc3cncc(C#N)c3)c(CNC(CO)(CO)CO)cc2Cl)c1C [Example 4125, (R)-5-((4-chloro-2-(((1,3-dihydroxy-2-(hydroxymethyl)propan-2-yl)amino)methyl)-5-((3′-((2-(3-hydroxypyrrolidin-1-yl)ethoxy)methyl)-2,2′-dimethyl-[1,1′-biphenyl]-3-yl)methoxy)phenoxy)methyl)nicotinonitrile] |
| 5.70 to 7.00 | Cc1c(COc2cc(OCc3cncc(C#N)c3)c(CN3CCCC[C@H]3C(=O)O)cc2Cl)cccc1-c1cccc(C(=O)N2CCOCC2)c1C [Example 4048, (S)-1-(5-chloro-2-((5-cyanopyridin-3-yl)methoxy)-4-((2,2′-dimethyl-3′-(morpholine-4-carbonyl)-[1,1′-biphenyl]-3-yl)methoxy)benzyl)piperidine-2-carboxylic Acid] |
| 8.00 to 9.68 | Cc1c(COc2cc(OCc3cncc(C#N)c3)c(CN[C@@](C)(CO)C(=O)O)cc2Cl)cccc1-c1cccc(OCCCN2CCOCC2)c1C [Example 2273, (S)-2-((5-chloro-2-((5-cyanopyridin-3-yl)methoxy)-4-((2,2′-dimethyl-3′-(3-morpholinopropoxy)-[1,1′-biphenyl]-3-yl)methoxy)benzyl)amino)-3-hydroxy-2-methylpropanoic Acid] |
| 8.00 to 9.68 | Cc1c(COc2cc(OCc3cncc(C(N)=O)c3)c(CN[C@](C)(CO)C(=O)O)cc2Cl)cccc1-c1cccc(OCCCN2CCC(CO)(C(=O)O)CC2)c1Cl [Example 1116, (R)-1-(3-((3′-((5-((5-carbamoylpyridin-3-yl)methoxy)-4-(((2-carboxy-1-hydroxypropan-2-yl)amino)methyl)-2-chlorophenoxy)methyl)-2-chloro-2′-methyl-[1,1′-biphenyl]-3-yl)oxy)propyl)-4-(hydroxymethyl)piperidine-4-carboxylic Acid] |

| Structure (SMILES) | pIC50 |
| --- | --- |
| Cc1c(CCCCN2CC[C@@H](O)C2)cccc1-c1cccc(COc2cc(OCc3cncc(C#N)c3)c(CN[C@@H](CNC(=O)OC(C)(C)C)C(=O)O)cc2Cl)c1C [Example 4067, (S)-3-((tert-butoxycarbonyl)amino)-2-((5-chloro-2-((5-cyanopyridin-3-yl)methoxy)-4-((3′-(4-((R)-3-hydroxypyrrolidin-1-yl)butyl)-2,2′-dimethyl-[1,1′-biphenyl]-3-yl)methoxy)benzyl)amino)propanoic Acid] | 8.00 to 9.68 |
